Test results reported in publication PMC13065040 (PLOS One, 2026).
“Also recorded” adds a separate entry of the source.

Key:
MMP-2 [1] = biological target: T1, MMP-2 (Homo sapiens, UniProt P08253); experiment: MMP-2 inhibition assay (Enzo kit, OmniMMP RED fluorogenic substrate); assay type: biochemical
T1 construct: purchased Enzo Life Sciences (MMP-2 drug discovery kit)
Procedure: The MMP-2 inhibition assay was performed using the Enzo Life Sciences MMP-2 drug discovery kit. and the quenched fluorogenic substrate OmniMMP RED. Reference substrate was diluted to a final concentration of 5 μM, while the MMP-2 enzyme was diluted to 58 mU/µL, and the N-Isobutyl-N-(4-methoxyphenylsulfonyl)glycyl hydroxamic acid (NNGH) inhibitor was diluted to a concentration of 1/200 in assay buffer. […] The assay was performed using a black 96-well microplate. Fluorescence was measured at excitation/emission wavelengths of 545/576 nm, with a cutoff at 570 nm using Gen5 microplate reader (BioTeK, Shoreline, WA). Baseline fluorescence was recorded before adding NNGH inhibitor which was used as a positive control for MMP-2 inhibition. Reaction mixtures in the plate were incubated at 37 °C for 10 min, and fluorescence was measured at 10 min intervals for the first 30 min, then at 30 min intervals until 2 h had elapsed. […] Statistical analysis was performed using ANOVA with GraphPad Prism software, version 10.0.3.

MMP-2 [2] = biological target: T2, MMP-2 (Homo sapiens, UniProt P08253); experiment: Differential scanning fluorimetry (DSF); assay type: binding; set-up: Dtm (ΔTm): unit not given here; conditions: for Dtm (ΔTm), average / Tm of MMP-2 with peptide, average: average of replicates; for Dtm (ΔTm) / Tm of MMP-2 with peptide: CTX experiment
T2 construct: ProSpec Bio; Antibodies-Online; Elabscience; Abcam ENZ-769; ABIN7400042; PKSH033450
T2 sequence (P08253 110-660): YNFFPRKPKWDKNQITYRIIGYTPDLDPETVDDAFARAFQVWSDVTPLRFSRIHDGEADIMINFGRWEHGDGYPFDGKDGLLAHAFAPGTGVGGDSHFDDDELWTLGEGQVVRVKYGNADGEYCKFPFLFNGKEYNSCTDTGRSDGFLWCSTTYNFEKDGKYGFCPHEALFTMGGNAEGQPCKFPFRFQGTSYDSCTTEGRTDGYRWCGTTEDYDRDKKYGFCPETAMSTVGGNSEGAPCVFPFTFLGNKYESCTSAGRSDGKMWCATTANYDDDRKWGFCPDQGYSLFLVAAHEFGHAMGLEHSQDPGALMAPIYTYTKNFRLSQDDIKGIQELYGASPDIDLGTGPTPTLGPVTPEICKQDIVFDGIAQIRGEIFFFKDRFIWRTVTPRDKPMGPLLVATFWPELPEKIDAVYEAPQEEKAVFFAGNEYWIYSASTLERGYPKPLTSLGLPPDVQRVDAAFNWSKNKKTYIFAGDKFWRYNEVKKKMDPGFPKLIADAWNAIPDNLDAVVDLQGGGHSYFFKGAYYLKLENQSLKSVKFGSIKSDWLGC
Procedure: The melting temperatures (Tm) of recombinant MMP-2 and its complexes with peptides were ascertained using BioRad CFX384 Touch real-time PCR (Hercules, CA, USA). The experiments were performed as previously described. The unfolding of the protein was detected using the fluorescent SYPRO-orange dye (Invitrogen, Carlsbad, CA, USA). MMP-2 and prospective ligand peptides were dissolved in 7.1 pH phosphate buffered saline (154 mM NaCl, 5.6 mM Na2PO4, 1.1 mM KH2PO4), and the reaction mixture was made to a final concentration of 1 µM of protein, either 30 µM ([…]) of peptide, and 1000x dilution of the SYPRO-Orange dye stock from the manufacturer. Excitation and emission filters of the dye were set at 450 − 490 nm and 560 − 580 nm, respectively. The temperature for the reaction was held at 25 °C for 5 min, and then a gradient of 25 °C to 95 °C was applied at a rate of 0.3 °C/min, and the fluorescence was recorded. To determine Tm of the protein, the first derivatives of melting curves were plotted using GraphPad Prism software, version 10.0.3.

MMP-2 [3] = biological target: T2, MMP-2; experiment: Surface plasmon resonance (SPR), immobilized MMP-2; assay type: binding; conditions: NTA chip, peptides 500 µM to 3.90 µM, pH 7.4
Procedure: Surface plasmon resonance (SPR) reagents, plates, and the NTA chip were purchased from GE Healthcare Life Sciences, now Cytiva (Marlborough, MA, USA). Measurements were performed using the Biacore 8000 SPR System (Marlborough, MA. USA). The running buffer used for protein immobilization and peptide binding consisted of 20 mM Tris, 150 mM NaCl, […] and 0.0005% Tween-20, adjusted to pH 7.4. MMP-2 and NRP-1 were immobilized onto the NTA chip at 15 nM and 25 nM concentration, respectively. Peptides were injected over the immobilized proteins using two-fold serial dilutions from 500 µM to 3.90 µM. Three experiments with four replicates of each were performed. The SPR response curves generated from the Biacore Insight Evaluation Software were fitted to a steady-state affinity model to obtain an equilibrium dissociation constant (KD) for each peptide — protein interaction.

## Chlorotoxin [Ctx]
MMP-2 [1]; Ctx 1 µM, replicate 1
  MMP-2 enzymatic activity, percent of control: 118.933
MMP-2 [1]; Ctx 1 µM, replicate 2
  MMP-2 enzymatic activity, percent of control: 112.076
MMP-2 [1]; Ctx 1 µM, replicate 3
  MMP-2 enzymatic activity, percent of control: 102.494
MMP-2 [1]; Ctx 1 µM, replicate 4
  MMP-2 enzymatic activity, percent of control: 91.6233
MMP-2 [1]; Ctx 1 µM, replicate 5
  MMP-2 enzymatic activity, percent of control: 88.1016
MMP-2 [1]; Ctx 1 µM, replicate 6
  MMP-2 enzymatic activity, percent of control: 107.77
MMP-2 [1]; Ctx 1 µM, replicate 7
  MMP-2 enzymatic activity, percent of control: 112.009
MMP-2 [1]; Ctx 1 µM, replicate 8
  MMP-2 enzymatic activity, percent of control: 115.93
MMP-2 [1]; Ctx 5 µM, replicate 1
  MMP-2 enzymatic activity, percent of control: 109.471
MMP-2 [1]; Ctx 5 µM, replicate 2
  MMP-2 enzymatic activity, percent of control: 117.657
MMP-2 [1]; Ctx 5 µM, replicate 3
  MMP-2 enzymatic activity, percent of control: 107.159
MMP-2 [1]; Ctx 5 µM, replicate 4
  MMP-2 enzymatic activity, percent of control: 113.75
MMP-2 [1]; Ctx 5 µM, replicate 5
  MMP-2 enzymatic activity, percent of control: 100.089
MMP-2 [1]; Ctx 5 µM, replicate 6
  MMP-2 enzymatic activity, percent of control: 108.86
MMP-2 [1]; Ctx 5 µM, replicate 7
  MMP-2 enzymatic activity, percent of control: 121.511
MMP-2 [1]; Ctx 5 µM, replicate 8
  MMP-2 enzymatic activity, percent of control: 108.966
MMP-2 [1]; Ctx 10 µM, replicate 1
  MMP-2 enzymatic activity, percent of control: 86.2677
MMP-2 [1]; Ctx 10 µM, replicate 2
  MMP-2 enzymatic activity, percent of control: 99.1052
MMP-2 [1]; Ctx 10 µM, replicate 3
  MMP-2 enzymatic activity, percent of control: 97.4706
MMP-2 [1]; Ctx 10 µM, replicate 4
  MMP-2 enzymatic activity, percent of control: 94.5071
MMP-2 [1]; Ctx 10 µM, replicate 5
  MMP-2 enzymatic activity, percent of control: 60.0877
MMP-2 [1]; Ctx 10 µM, replicate 6
  MMP-2 enzymatic activity, percent of control: 92.3409
MMP-2 [1]; Ctx 10 µM, replicate 7
  MMP-2 enzymatic activity, percent of control: 113.684
MMP-2 [1]; Ctx 10 µM, replicate 8
  MMP-2 enzymatic activity, percent of control: 106.8
MMP-2 [1]; Ctx 15 µM, replicate 1
  MMP-2 enzymatic activity, percent of control: 86.879
MMP-2 [1]; Ctx 15 µM, replicate 2
  MMP-2 enzymatic activity, percent of control: 110.627
MMP-2 [1]; Ctx 15 µM, replicate 3
  MMP-2 enzymatic activity, percent of control: 103.344
MMP-2 [1]; Ctx 15 µM, replicate 4
  MMP-2 enzymatic activity, percent of control: 104.062
MMP-2 [1]; Ctx 15 µM, replicate 5
  MMP-2 enzymatic activity, percent of control: 43.5824
MMP-2 [1]; Ctx 15 µM, replicate 6
  MMP-2 enzymatic activity, percent of control: 117.856
MMP-2 [1]; Ctx 15 µM, replicate 7
  MMP-2 enzymatic activity, percent of control: 126.92
MMP-2 [1]; Ctx 15 µM, replicate 8
  MMP-2 enzymatic activity, percent of control: 120.528
MMP-2 [1]; Ctx 20 µM, replicate 1
  MMP-2 enzymatic activity, percent of control: 134.561
MMP-2 [1]; Ctx 20 µM, replicate 2
  MMP-2 enzymatic activity, percent of control: 108.926
MMP-2 [1]; Ctx 20 µM, replicate 3
  MMP-2 enzymatic activity, percent of control: 139.252
MMP-2 [1]; Ctx 20 µM, replicate 4
  MMP-2 enzymatic activity, percent of control: 98.6135
MMP-2 [1]; Ctx 20 µM, replicate 5
  MMP-2 enzymatic activity, percent of control: 53.8949
MMP-2 [1]; Ctx 20 µM, replicate 6
  MMP-2 enzymatic activity, percent of control: 135.226
MMP-2 [1]; Ctx 20 µM, replicate 7
  MMP-2 enzymatic activity, percent of control: 133.352
MMP-2 [1]; Ctx 20 µM, replicate 8
  MMP-2 enzymatic activity, percent of control: 121.591
MMP-2 [1]; Ctx at 1, 5, 10, 15 and 20 µM, compared to control inhibitor
  inhibition of MMP-2 enzymatic activity (Fig 10A): did not inhibit; also recorded: not statistically significant
MMP-2 [1]; peptides at 1 µM, 50 µM and 100 µM, one-way ANOVA vs control
  inhibition of MMP-2 enzymatic activity (Fig 10B): not statistically significant
MMP-2 [2]; peptide 30 (µM per method)
  Dtm (ΔTm), average: 2.368e-15
  Tm of MMP-2 with peptide, average: 47.7
MMP-2 [2]; peptide 30, replicate 1
  Dtm (ΔTm): -0.2
  Tm of MMP-2 with peptide: 47.5 °C
MMP-2 [2]; peptide 30, replicate 2
  Dtm (ΔTm): 0.1
  Tm of MMP-2 with peptide: 47.8 °C
MMP-2 [2]; peptide 30, replicate 3
  Dtm (ΔTm): 0.1
  Tm of MMP-2 with peptide: 47.8 °C
MMP-2 [2]; peptide 50 (µM per method)
  Dtm (ΔTm), average: -0.2
  Tm of MMP-2 with peptide, average: 47.5
MMP-2 [2]; peptide 50, replicate 1
  Dtm (ΔTm): -0.2
  Tm of MMP-2 with peptide: 47.5 °C
MMP-2 [2]; peptide 50, replicate 2
  Dtm (ΔTm): -0.2
  Tm of MMP-2 with peptide: 47.5 °C
MMP-2 [2]; peptide 50, replicate 3
  Dtm (ΔTm): -0.2
  Tm of MMP-2 with peptide: 47.5 °C
MMP-2 [3]
  binding to MMP-2 by SPR: did not bind
